Where two headings read alike, the source gives them in different places.
Experiments:
[1] = tested on: mature adipocytes (3T3-L1 cells); assay: Enhancing action on glucose uptake (2-deoxyglucose) into mature adipocytes; assay type: cell-based; conditions: Mus musculus
[2] = Toxicity test, forcible oral administration for 3 consecutive days; assay type: in vivo; conditions: female ICR mice, 1 g/kg forcibly orally once a day for 3 days, in CMC or olive oil
Method: The influence of 4-hydroxyderricin and xanthoangelol by forcible oral administration for 3 consecutive days was examined using female 12-week old ICR mice (Japan SLC, Inc.). 4-Hydroxyderricin or xanthoangelol was suspended or dissolved in a 0.5% (w/v) carboxymethyl cellulose solution (CMC) or an olive oil so as to have a concentration of 20% (w/v). The suspension or solution was forcibly orally administered once a day for 3 days in an amount of 5 mL per 1 kg body weight (1 g/kg in terms of 4-hydroxyderricin or xanthoangelol). Three cases were used for each group.

[3] = tested on: type II diabetes model mice; assay: Suppressive effects on incidence of diabetes (blend feed); assay type: in vivo, KK-Ay mice; conditions: 0.15% blend feed; for Blood Glucose Level, Previous Day: male 5-week old KK-Ay mice, day before beginning of administration; for Blood Glucose Level, Previous Day / Amount of Drunk Water, Ninth to Fifteenth Day / Amount of Drunk Water, Second to Eighth Day / Blood Glucose Level, Fifteenth Day: mean ± standard error; for effects for suppressing the incidence of diabetes (in words) / changes in body weight, amount of feed taken and general symptoms / Amount of Drunk Water, Ninth to Fifteenth Day / Amount of Drunk Water, Second to Eighth Day / Blood Glucose Level, Fifteenth Day: male KK-Ay mice; for changes in body weight, amount of feed taken and general symptoms: experimental period
Method: The suppressive effects of xanthoangelol and 4-hydroxyderricin on incidence of diabetes were examined using type II diabetes model mice. Experiments were carried out with seven male 5-week old KK-Ay mice (CLEA Japan, Inc.) per group. Xanthoangelol and 4-hydroxyderricin were each mixed in a powder feed (CE-2: CLEA Japan, Inc.) so as to have a ratio of 0.15%, and the mice were fed with the blended power feed. The mice in the control group were fed with the powder feed (CE-2). On the day before the beginning of administration, and on the fifteenth day, the blood glucose level was determined in the same manner as in Example 88. In addition, as an index of the incidence of diabetes, amounts of drunk water from the second to eighth days and from the ninth to fifteenth days from the administration were determined, and an average amount of drunk water per day was calculated, respectively. By administration of a mixed feed with xanthoangelol or 4-hydroxyderricin, the suppression of increase in a blood glucose level was found. Further, the suppression of increase in the amount of drunk water which is an index of the incidence of diabetes was found. […] During the experimental period, no changes were found in body weight, amount of feed taken and general symptoms.

[4] = 3T3-L1, 30 μM, X=(S−N)/(P−N) of 2-deoxyglucose uptake, P=insulin 1 μg/mL, read-out: Enhancing Action on Glucose Uptake
[5] = 3T3-L1, read-out: Enhancing Action on Glucose Uptake
[6] = 3T3-L1, 10 μM, X=(S−N)/(P−N) of 2-deoxyglucose uptake, P=insulin 1 μg/mL, read-out: Enhancing Action on Glucose Uptake

Row | SMILES | activation at 30 µM [1, 4] | activation at 3 µM [1, 5] | activation at 10 µM [1, 5] | activation at 30 µM [1, 5] | cases of death [2] | change in general symptom [2] | Blood Glucose Level, Previous Day [3] | effects for suppressing the incidence of diabetes (in words) [3] | changes in body weight, amount of feed taken and general symptoms [3] | Amount of Drunk Water, Ninth to Fifteenth Day [3] | Amount of Drunk Water, Second to Eighth Day [3] | Blood Glucose Level, Fifteenth Day [3] | activation at 10 µM [1, 6] | activation at 3 µM ([1]; 3T3-L1, 3 μM, X=(S−N)/(P−N) of 2-deoxyglucose uptake, P=insulin 1 μg/mL, read-out: Enhancing Action on Glucose Uptake)
1 | COc1ccc(C(=O)/C=C/c2ccc(O)cc2)c2c1CC(O)C(C)(C)O2 (stereo not shown) [Xanthoangelol H] | 30 to 60% | – | – | – | – | – | – | – | – | – | – | – | – | –
2 | COc1ccc(C(=O)/C=C/c2ccc(O)cc2)c(O)c1CC=C(C)C [4-Hydroxyderricin, 4,2′-Dihydroxy-3′-prenyl-4′-methoxychalcone] | – | 60 to 100% | > 100% | > 100% | No cases of death | no change | 226 ± 14 mg/dL | effects for suppressing the incidence of diabetes was found | no changes | 10.0 ± 0.6 mL/day | 7.6 ± 0.2 mL/day | 354 ± 24 mg/dL | – | –
3 | CC(C)=CCC/C(C)=C/Cc1c(O)ccc(C(=O)/C=C/c2ccc(O)cc2)c1O [Xanthoangelol, 4,2′,4′-Trihydroxy-3′-geranylchalcone] | > 100% | – | – | – | No cases of death | no change | 232 ± 11 mg/dL | effects for suppressing the incidence of diabetes was found | no changes | 14.6 ± 2.0 mL/day | 10.3 ± 1.3 mL/day | 426 ± 39 mg/dL | 30 to 60% | –
4 | COc1ccc(C(=O)/C=C/c2ccc(O)cc2)c(O)c1C/C=C(\C)CCC=C(C)C [Xanthoangelol F, 4,2′-Dihydroxy-3′-geranyl-4′-methoxychalcone] | > 100% | – | – | – | – | – | – | – | – | – | – | – | > 100% | 30 to 60%

Reference: patent US20070092551A1, “Therapeutic agent” (TAKARA BIO INC., priority 2003, published 2007)
